# Laboratory results published in patent US9783536B2, “Nitrogen-containing heterocyclic compound or salt thereof” (FUJIFILM Corporation, priority 2013, dated 2017).
# pIC50: −log10 of the molar value. Like-named read-outs stand apart in the source and are kept apart here.
# Experiments:
# human PI3Kα protein = target: T1, human PI3Kα protein (Homo sapiens, UniProt P42336); assay: PI3Kα enzyme assay (ADP-Glo); type: biochemical; details: read-out: PI3Kα enzyme inhibitory activity
# T1 construct: purchased Carna Biosciences, Inc; host or cells: baculovirus expression system
# T1 sequence (P42336 whole entry): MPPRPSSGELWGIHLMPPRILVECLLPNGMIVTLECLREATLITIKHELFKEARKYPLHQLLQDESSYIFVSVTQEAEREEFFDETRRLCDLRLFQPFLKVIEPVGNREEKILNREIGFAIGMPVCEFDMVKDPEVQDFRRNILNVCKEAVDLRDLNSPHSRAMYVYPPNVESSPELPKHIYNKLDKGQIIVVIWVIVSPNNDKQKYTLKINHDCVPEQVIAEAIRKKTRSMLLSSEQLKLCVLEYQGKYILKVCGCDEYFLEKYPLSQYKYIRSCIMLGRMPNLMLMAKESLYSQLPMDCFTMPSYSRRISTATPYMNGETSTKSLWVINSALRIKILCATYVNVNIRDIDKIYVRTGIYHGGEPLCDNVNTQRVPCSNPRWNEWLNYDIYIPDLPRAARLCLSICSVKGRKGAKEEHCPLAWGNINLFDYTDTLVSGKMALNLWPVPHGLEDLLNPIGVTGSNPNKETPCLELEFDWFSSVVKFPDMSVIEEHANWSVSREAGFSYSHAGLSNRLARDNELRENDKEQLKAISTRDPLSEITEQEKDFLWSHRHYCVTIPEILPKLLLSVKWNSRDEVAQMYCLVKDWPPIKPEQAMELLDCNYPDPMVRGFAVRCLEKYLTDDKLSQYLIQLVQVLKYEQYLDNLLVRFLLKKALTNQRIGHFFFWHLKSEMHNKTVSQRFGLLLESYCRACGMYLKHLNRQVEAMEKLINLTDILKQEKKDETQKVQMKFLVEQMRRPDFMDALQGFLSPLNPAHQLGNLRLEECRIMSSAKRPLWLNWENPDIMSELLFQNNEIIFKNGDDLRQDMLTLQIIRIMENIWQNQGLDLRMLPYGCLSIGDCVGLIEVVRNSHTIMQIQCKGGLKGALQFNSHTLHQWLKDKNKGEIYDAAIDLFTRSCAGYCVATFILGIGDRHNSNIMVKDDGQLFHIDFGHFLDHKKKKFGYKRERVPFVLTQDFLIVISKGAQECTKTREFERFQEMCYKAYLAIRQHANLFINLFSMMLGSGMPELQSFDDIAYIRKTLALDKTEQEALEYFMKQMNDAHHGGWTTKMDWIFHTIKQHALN
# T1 sequence (P27986 whole entry partner): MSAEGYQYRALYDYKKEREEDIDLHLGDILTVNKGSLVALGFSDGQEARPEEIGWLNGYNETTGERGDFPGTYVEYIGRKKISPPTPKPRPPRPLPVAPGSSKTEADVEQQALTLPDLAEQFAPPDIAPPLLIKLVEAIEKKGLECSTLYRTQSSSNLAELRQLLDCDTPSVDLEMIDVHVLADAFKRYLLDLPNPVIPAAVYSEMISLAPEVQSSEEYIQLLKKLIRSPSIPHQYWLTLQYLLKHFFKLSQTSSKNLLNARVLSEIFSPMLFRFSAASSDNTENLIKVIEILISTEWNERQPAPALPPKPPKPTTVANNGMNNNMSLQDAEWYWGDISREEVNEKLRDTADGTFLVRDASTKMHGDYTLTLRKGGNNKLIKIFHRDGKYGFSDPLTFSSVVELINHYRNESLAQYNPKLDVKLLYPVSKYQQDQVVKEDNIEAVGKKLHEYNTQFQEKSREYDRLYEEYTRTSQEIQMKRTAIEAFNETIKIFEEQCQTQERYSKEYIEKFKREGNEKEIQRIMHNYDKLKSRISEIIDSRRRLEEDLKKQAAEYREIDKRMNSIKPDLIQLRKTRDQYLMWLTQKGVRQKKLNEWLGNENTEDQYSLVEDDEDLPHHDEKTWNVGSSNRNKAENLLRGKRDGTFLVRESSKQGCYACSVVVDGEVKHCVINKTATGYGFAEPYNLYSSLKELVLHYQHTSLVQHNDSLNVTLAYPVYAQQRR
# How it was run: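 Biotinylated human PI3Kα (baculovirus-expressed, 4.5 nmol/L) pre-incubated 15 min with compound in Tris-HCl pH 7.5, MgCl2, BSA; reaction 60 min at 25° C with 50 μmol/L PIP2 and 100 μmol/L ATP final. ADP quantified by ADP-Glo luminescence; IC50 calculated.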
# [1] = target: T2, GST fusion human ERK2 protein (Homo sapiens, UniProt P28482); assay: ERK2 enzyme assay (2); type: biochemical; details: read-out: ERK2 enzyme inhibitory activity (2)
# T2 construct: purchased Carna Biosciences, Inc; host or cells: E. coli expression system
# T2 sequence (P28482 whole entry, the tested form may be a part): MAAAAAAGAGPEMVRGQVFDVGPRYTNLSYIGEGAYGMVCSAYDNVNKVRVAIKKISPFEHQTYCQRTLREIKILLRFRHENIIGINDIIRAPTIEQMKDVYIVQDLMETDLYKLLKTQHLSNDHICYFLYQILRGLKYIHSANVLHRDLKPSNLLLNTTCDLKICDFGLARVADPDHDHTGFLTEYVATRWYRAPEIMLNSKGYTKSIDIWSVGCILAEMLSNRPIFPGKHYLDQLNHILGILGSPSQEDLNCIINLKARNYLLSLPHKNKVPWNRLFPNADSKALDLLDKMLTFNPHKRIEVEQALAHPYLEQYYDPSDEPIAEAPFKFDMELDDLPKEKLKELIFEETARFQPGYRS
# How it was run: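 IC50 values come from mobility-shift measurement of phosphorylated versus unphosphorylated 5-FAM peptide substrate after EDTA quench. Beforehand, compound and 1.25 nmol/L E. coli-expressed GST–human ERK2 stood 15 min at room temperature (pH 7.5), then 1 mmol/L ATP and 4.25 μmol/L substrate (final) were added for 120 min at 25 °C.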
pIC50 (human PI3Kα protein),pIC50 ([1]; ERK2 enzyme assay (2)),pIC50 [1],Structure (SMILES)
4.30 to 5.00,5.00 to 6.00,–,"Cc1ccc(S(=O)(=O)Nc2cnc3ccc(Nc4cc(C(C)C)cnn4)nc3c2)cc1 [Example 0839, N-(6-((5-isopropylpyridazin-3-yl)amino)-1,5-naphthyridin-3-yl)-4-methylbenzene sulfonamide]"
> 6.00,> 6.00,–,c1nnc(Nc2ccc3ncc(-c4cnn(CCOC5CNC5)c4)cc3n2)cc1CC1CCCCC1 [Example 0817]
> 6.00,–,> 6.00,CCCc1cnnc(Nc2ccc3ncc(-c4cnn(C)c4)cc3n2)c1 [Example 0918]
5.00 to 6.00,> 6.00,–,"CC(C)c1cnnc(Nc2ccc3ncc(-c4cncn4C)cc3n2)c1 [Example 0509, N-(5-isopropylpyridazin-3-yl)-7-(1-methyl-1H-imidazol-5-yl)-1,5-naphthyridine-2-amine]"
> 6.00,> 6.00,–,Cn1cc(-c2cnc3ccc(Nc4cc(C(C)(C)O)cnn4)nc3c2)c(-c2ccncc2)n1 [Example 0782]
> 6.00,> 6.00,–,CC(C)c1cnnc(Nc2ccc3ncc(N4CC(NS(C)(=O)=O)C4)cc3n2)c1 [Example 0867]
> 6.00,> 6.00,–,COC1CN(c2cnc3ccc(Nc4cc(C(C)C)cnn4)nc3c2)C1 [Example 0853]
> 6.00,–,> 6.00,"CC(C)c1cnnc(Nc2ccc3ncc(C4=CCN(C(=O)N(C)C)C4)cc3n2)c1 [Example 0907, 3-(6-((5-Isopropylpyridazin-3-yl)amino)-1,5-naphthyridin-3-yl)-N,N-dimethyl-2,5-dihydro-1H-pyrrole-1-carboxamide]"
5.00 to 6.00,–,5.00 to 6.00,"CC(C)c1cnnc(Nc2ccc3ncc(NC4CNC4)cc3n2)c1 [Example 0905, N^7-(azetidin-3-yl)-N^2-(5-isopropylpyridazin-3-yl)-1,5-naphthyridine-2,7-diamine]"
> 6.00,> 6.00,–,CC(C)c1cnnc(Nc2ccc3ncc(-c4cn(C)nc4Nc4ccncc4)cc3n2)c1 [Example 0798]
> 6.00,> 6.00,–,CC(C)c1cnnc(Nc2ccc3ncc(-c4cnn(CC(F)(F)CN5CCOCC5)c4)cc3n2)c1 [Example 0731]
> 6.00,> 6.00,–,CC(C)c1cnnc(Nc2ccc3ncc(-c4cn(C)nc4N(C)c4cccnc4)cc3n2)c1 [Example 0802]
5.00 to 6.00,> 6.00,–,"CC(C)c1cnnc(Nc2ccc3ncc(C4=CCN(C)CC4)cc3n2)c1 [Example 0884, N-(5-isopropylpyridazin-3-yl)-7-(1-methyl-1,2,3,6-tetrahydropyridin-4-yl)-1,5-naphthyridine-2-amine]"
> 6.00,> 6.00,–,CC(=O)N1CCCC(Cn2cc(-c3cnc4ccc(Nc5cc(C(C)C)cnn5)nc4c3)cn2)C1 (stereo not drawn) [Example 0548]
> 6.00,> 6.00,–,CC(C)COC1CN(CCCn2cc(-c3cnc4ccc(Nc5cc(C(C)C)cnn5)nc4c3)cn2)C1 [Example 0708]
5.00 to 6.00,> 6.00,–,"CC(C)c1cnnc(Nc2ccc3ncc(N4CCC(CO)CC4)cc3n2)c1 [Example 0511, (1-(6-((5-Isopropylpyridazin-3-yl)amino)-1,5-naphthyridin-3-yl)piperidin-4-yl)methanol]"
> 6.00,> 6.00,–,"CC(C)c1cnnc(Nc2ccc3ncc(-c4cnn(CCCN5CC6(CCO6)C5)c4)cc3n2)c1 [Example 0704, 7-(1-(3-(1-Oxa-6-azaspiro[3.3]heptan-6-yl)propyl)-1H-pyrazol-4-yl)-N-(5-isopropylpyridazin-3-yl)-1,5-naphthyridine-2-amine]"
> 6.00,> 6.00,–,"CC(=O)N1CC=C(c2cnc3ccc(Nc4cc(C(C)C)cnn4)nc3c2)CC1 [Example 0882, 1-(4-(6-((5-isopropylpyridazin-3-yl)amino)-1,5-naphthyridin-3-yl)-5,6-dihydropyridine-1(2H)-yl)ethanone]"
> 6.00,> 6.00,–,Cn1cc(-c2cnc3ccc(Nc4cc(C5(C)CC5)cnn4)nc3c2)cn1 [Example 0633]
> 6.00,5.00 to 6.00,–,"CC(C)c1cnnc(Nc2ccc3ncc(/C=C/c4ccccn4)cc3n2)c1 [Example 0656, (E)-N-(5-isopropylpyridazin-3-yl)-7-(2-(pyridin-2-yl)vinyl)-1,5-naphthyridine-2-amine]"
> 6.00,> 6.00,–,CC(C)NC(=O)N1CCC(Cn2cc(-c3cnc4ccc(Nc5cc(C(C)C)cnn5)nc4c3)cn2)CC1 [Example 0544]
> 6.00,> 6.00,–,COc1ccc(-c2nn(C)cc2-c2cnc3ccc(Nc4cc(C(C)C)cnn4)nc3c2)cc1 [Example 0584]
> 6.00,> 6.00,–,"CC(C)c1cnnc(Nc2ccc3ncc(-c4ccnc(N)c4)cc3n2)c1 [Example 0602, 7-(2-aminopyridin-4-yl)-N-(5-isopropylpyridazin-3-yl)-1,5-naphthyridine-2-amine]"
> 6.00,> 6.00,–,"CC(C)c1cnnc(Nc2ccc3ncc(-c4ccc(=O)n(C)c4)cc3n2)c1 [Example 0594, 5-(6-((5-isopropylpyridazin-3-yl)amino)-1,5-naphthyridin-3-yl)-1-methylpyridin-2(1H)-one]"

pIC50 (human PI3Kα protein),pIC50 ([1]; ERK2 enzyme assay (2)),pIC50 [1],Structure (SMILES)
> 6.00,> 6.00,–,CC(C)(O)c1cnnc(Nc2ccc3ncc(-c4cnn(CC5CCOCC5)c4)cc3n2)c1 [Example 0783]
> 6.00,> 6.00,–,COc1cccc(OCc2nn(C)cc2-c2cnc3ccc(Nc4cc(C(C)C)cnn4)nc3c2)c1 [Example 0805]
5.00 to 6.00,5.00 to 6.00,–,CC(C)c1cnnc(Nc2ccc3ncc(N4CC(Oc5ccccc5)C4)cc3n2)c1 [Example 0860]
5.00 to 6.00,5.00 to 6.00,–,CC(C)c1cnnc(Nc2ccc3ncc(C(=O)NCCCO)cc3n2)c1 [Example 0663]
> 6.00,> 6.00,–,CC(C)c1cnnc(Nc2ccc3ncc(-c4cnn(CCCN5CC(O)(CCO)C5)c4)cc3n2)c1 [Example 0702]
> 6.00,> 6.00,–,CC(C)c1cnnc(Nc2ccc3ncc(N4CC(OCCF)C4)cc3n2)c1 [Example 0864]
5.00 to 6.00,> 6.00,–,CC(C)c1cnnc(Nc2ccc3ncc(-c4ccnn4C)cc3n2)c1 [Example 0758]
> 6.00,> 6.00,–,CC(C)c1cnnc(Nc2ccc3ncc(-c4cnn(CCCN5CC(C(=O)N6CCOCC6)C5)c4)cc3n2)c1 [Example 0689]
> 6.00,> 6.00,–,CC(C)c1cnnc(Nc2ccc3ncc(-c4cnn(CC5CCN(C(=O)N6CCOCC6)CC5)c4)cc3n2)c1 [Example 0532]
> 6.00,4.30 to 5.00,–,COc1ccc(-c2nn(C)cc2-c2cnc3ccc(Nc4cc(C)cnn4)nc3c2)cn1 [Example 0458]
> 6.00,> 6.00,–,"Cc1nn(C)nc1-c1cnc2ccc(Nc3cc(C(C)C)cnn3)nc2c1 [Example 0720, 7-(2,5-Dimethyl-2H-1,2,3-triazol-4-yl)-N-(5-isopropylpyridazin-3-yl)-1,5-naphthyridine-2-amine]"
> 6.00,–,> 6.00,CC(C)c1cnnc(Nc2ccc3ncc(-c4cn(C)nc4N4CC5(CCO5)C4)cc3n2)c1 [Example 0941]
5.00 to 6.00,5.00 to 6.00,–,CC(C)c1cnnc(Nc2ccc3ncccc3n2)c1 [Example 0876]
> 6.00,> 6.00,–,CC(C)c1cnnc(Nc2ccc3ncc(-c4cnn(CCCN5CC(OCC(F)(F)F)C5)c4)cc3n2)c1 [Example 0699]
> 6.00,> 6.00,–,CC(C)c1cnnc(Nc2ccc3ncc(N4CC(F)(F)C4)cc3n2)c1 [Example 0854]
> 6.00,> 6.00,–,"CC(C)c1cnnc(Nc2ccc3ncc(-n4cnc(CCN(C)C)c4)cc3n2)c1 [Example 0503, 7-(4-(2-(Dimethylamino)ethyl)-1H-imidazol-1-yl)-N-(5-isopropylpyridazin-3-yl)-1,5-naphthyridine-2-amine]"
> 6.00,> 6.00,–,CC(C)c1cnnc(Nc2ccc3ncc(-c4cnn(C[C@H]5CCC(=O)N5C)c4)cc3n2)c1 [Example 0568]
> 6.00,> 6.00,–,CC(C)c1cnnc(Nc2ccc3ncc(-c4cnn(CC(F)F)c4)cc3n2)c1 [Example 0467]
> 6.00,–,> 6.00,CC(C)c1cnnc(Nc2ccc3ncc(-c4cn(C)nc4NC4CCC4)cc3n2)c1 [Example 0939]
> 6.00,> 6.00,–,CC(=O)N1CCN(c2cnc3ccc(Nc4cc(C(C)C)cnn4)nc3c2)CC1 [Example 0872]
> 6.00,> 6.00,–,CC(C)c1cnnc(Nc2ccc3ncc(-c4cn(C)nc4NCc4ccccn4)cc3n2)c1 [Example 0834]
> 6.00,5.00 to 6.00,–,Cc1cnnc(Nc2ccc3ncc(-c4cn(C)nc4-c4cccnc4)cc3n2)c1 [Example 0527]
> 6.00,> 6.00,–,"CC(C)c1cnnc(Nc2ccc3ncc(-c4cn(C)nc4-c4ccnc(N5CCOCC5)c4)cc3n2)c1 [Example 0749, N-(5-isopropylpyridazin-3-yl)-7-(1-methyl-3-(2-morpholinopyridin-4-yl)-1H-pyrazol-4-yl)-1,5-naphthyridine-2-amine]"
> 6.00,> 6.00,–,"CC(C)c1cnnc(Nc2ccc3ncc(-c4cnn(CCCN(C)CC(=O)O)c4)cc3n2)c1 [Example 0667, 2-((3-(4-(6-((5-isopropylpyridazin-3-yl)amino)-1,5-naphthyridin-3-yl)-1H-pyrazol-1-yl)propyl) (methyl)amino)acetic acid]"
